This is an account of results in paper PMC4627231, “Targeting the sugar metabolism of tumors with a first-in-class 6-phosphofructo-2-kinase (PFKFB4) inhibitor” (Oncotarget, 2015).

The test concerns panel of 97 protein kinases. The experiment in a line: KINOMEscan active-site dependent competition binding assay. The settings on record: 10 μM, data not shown. The protocol:
The fructose-6-phosphate kinase activity of human recombinant PFKFB4 and human recombinant PFKFB3 in the presence of DMSO ± indicated concentrations of 5MPN was assayed as previously described. The activity of 5MPN against 97 kinases was examined using a commercially available active-site dependent competition binding assay core service (KINOMEscanEDGE) that quantifies the capacity of test agents to compete with an immobilized, active-site directed ligand using a DNA-tagged kinase and immobilized ligand and compound.

Regarding `COc1cccc2c(NCCCCCO[N+](=O)[O-])ccnc12` [Compound 5MPN, 5-(n-(8-methoxy-4-quinolyl)amino)pentyl nitrate], the “inhibition of a panel of 97 protein kinases” value was “not inhibited”.
